Experimental data reported in patent US9416103B2, “Use of the aminoalkylindole JWH-073-M4 and related compounds as neutral CB1 receptor antagonists for the treatment of alcoholism, drug abuse, obesity, and obesity-related diseases” (The Board of Trustees of the University of Arkansas, priority 2012, dated 2016).
Where “and” joins values, the source holds several entries; their conditions need not be identical. Equal values may be shown once. Read-outs that look alike come from different tables or passages of the source. Marks after values point to notes of the source that are not given here.

Key:
CB1Rs = CB1Rs (Mus musculus (Mouse), UniProt P47746); assay: [35S]GTPγS binding assay (G-protein activation) in mouse brain homogenates; format: biochemical
Protocol: Mouse brain homogenates for in vitro assays were prepared as previously described. Briefly, whole brains were harvested from B6SJL mice, snap-frozen in liquid nitrogen and stored at −80° C. On the day membrane homogenates were to be prepared, brains were thawed on ice, then pooled in a 40 mL Dounce glass homogenizer and suspended in 5 volumes of ice cold homogenization buffer (50 mM HEPES, pH 7.4, 3 mM MgCl2, and 1 mM EGTA). Brains were then subjected to 10 complete strokes with an A pestle, followed by centrifugation at 40,000×g for 10 minutes at +4° C. Resulting supernatants were discarded, and the pellet was resuspended, homogenized and centrifuged similarly twice more, with supernatants being discarded. For the final resuspension and homogenization with a B pestle, ice-cold 50 mM HEPES was used in place of homogenization buffer, and homogenates were aliquoted and stored at −80° C. Protein concentrations of homogenates were determined using the BCA™ Protein Assay (Thermo Scientific, Rockford, Ill.).
[^35S]GTPγS binding was performed as previously described. Briefly, 25 μg of mouse brain homogenates were incubated for 30 minutes at 30° C. with 0.1 nM [^35S]GTPγS, 10 μM GDP, and either cannabinoid+/−antagonist, 10 μM unlabeled GTPγS (non-specific binding) or vehicle (total binding), in triplicate, in a volume of 1 mL of buffer containing 20 mM HEPES, 10 mM MgCl2, 100 mM NaCl, 20 units/L adenosine deaminase, 0.05% BSA and the appropriate DMSO (0.1%) and/or ethanol (<0.2%) vehicle. Assay buffer containing 100 mM KCl, instead of 100 mM NaCl, was used to increase basal G-protein activity in experiments examining inverse agonism. Reactions were terminated by quick vacuum filtration through Whatman GF/B glass fiber filters, followed by five washes with ice-cold buffer (20 mM HEPES, 0.05% BSA). Filters were immediately placed into 7 mL scintillation vials to which 4 mL of ScintiVerse™ BD Cocktail scintillation fluid was added. Bound radioactivity was determined after overnight incubation at room temperature and shaking by liquid scintillation spectrophotometry with an efficiency of 93% (Tri Carb 2100 TR Liquid Scintillation Analyzer, Packard Instrument Company, Meriden, Conn.). Specific binding is expressed as picomoles of [^35S]GTPγS bound per mg of protein.
Curve fitting and statistical analyses for in vitro experiments were performed using GraphPad Prism™ version 5.0b (GraphPad Software Inc., San Diego, Calif.). The Cheng-Prusoff equation [45] was used to convert the experimental IC50 values obtained from competition receptor binding experiments to Ki values, a quantitative measure of receptor affinity. Non-linear regression for one-site competition was used to determine the IC50 for competition receptor binding. Curve fitting of concentration-effect curves via non-linear regression was also employed to determine the EC50 (a measure of potency) and Emax (a measure of efficacy) for [^35S]GTPγS concentration-effects experiments. […] Data are expressed as mean±SEM. The Student's t-test was used to determine statistical significance (P<0.05) between two groups, while a one-way ANOVA, followed by Tukey's Multiple Comparison post-hoc test, was used to determine statistical significance (P<0.05) between three or more groups.

NIH Swiss mice [1] = assay: Analgesia, tail-flick latency; format: in vivo, mouse; details: M4 10 mg/kg i.p. + JWH-018 3 mg/kg i.p.
hCB2Rs [2] = biological target: T1, hCB2Rs (Homo sapiens (Human), UniProt P34972); assay: Competition receptor binding with [3H]CP-55,940 in CHO-hCB2 cell homogenates
Protocol: Competition receptor binding was performed as previously described. […] Reactions were terminated by rapid vacuum filtration through Whatman GF/B glass fiber filters, followed by five washes with ice-cold buffer (50 mM Tris, 0.05% BSA). Filters were immediately placed into 7 mL scintillation vials to which 4 mL of ScintiVerse™ BD Cocktail scintillation fluid (Fisher Scientific, Fair Lawn, N.J.) was added. Bound radioactivity was determined after overnight incubation at room temperature and shaking, by liquid scintillation spectrophotometry with an efficiency of 44% (Tri Carb 2100 TR Liquid Scintillation Analyzer, Packard Instrument Company, Meriden, Conn.). Specific binding is expressed as total binding minus non-specific binding, and is graphed for each data point as a percentage of specific binding occurring in the absence of any competitor.
The prepared analogues were subjected to in vitro pharmacological testing, which included receptor binding and functional assays at both cannabinoid receptors. Initial receptor binding screens at both CB1Rs and CB2Rs were conducted for the analogues prepared.

NIH Swiss mice [3] = assay: Locomotor activity by biotelemetry (cannabinoid tetrad); format: in vivo, mouse; details: M4 10 mg/kg i.p. + JWH-018 3 mg/kg i.p.
[4] = biological target: CB1Rs endogenously expressed in Neuro2A cells (Mus musculus (Mouse), UniProt P47746); assay: Adenylyl cyclase (AC) inhibition via CB1Rs endogenously expressed in Neuro2A cells; format: cell-based
[5] = tested on: mice trained to discriminate THC; assay: THC drug discrimination (generalization of JWH-018 to THC); format: in vivo, mouse; details: M4 10 mg/kg i.p. + JWH-018 1 mg/kg; training dose THC 10 mg/kg i.p.
hCB2Rs [6] = biological target: T1, hCB2Rs; assay: Inhibition of forskolin-stimulated cAMP production (adenylyl cyclase) in intact CHO-hCB2R cells; format: cell-based
Protocol: Adenylyl cyclases are a family of membrane-bound enzymes that catalyze the intracellular production of the second messenger cAMP from ATP. Adenylyl cyclase activity is modulated by activated G-proteins: Gs-proteins stimulate activity, while Gi/o-proteins are inhibitory. Thus, agonists of G-protein coupled receptors (GPCRs) coupled to Gi/o-proteins, such as hCB2Rs, decrease cAMP production due to inhibition of adenylyl cyclase activity. In this assay, intact CHO-hCB2R cells are preincubated with [^3H]-adenine and treated with forskolin (10 or 30 μM) to stimulate adenylyl cyclase activity.
A functional assay screen for the inhibition of adenylate cyclase (AC) activity was chosen as the subsequent assay. […] Reaching full-receptor occupancy, which is predicted to produce maximal efficacy, is desirable at 10 μM concentration of all the compounds was used.

mice = assay: Thermoregulation assay, antagonism of JWH-073-induced hypothermia; format: in vivo, mouse; details: 10 mg/kg
Source text: Our hypothesis is that a dual activity CB1R antagonist/CB2R agonist will reduce the reinforcing effects of EtOH as well as reduce the conditioned rewarding effects of ethanol in mice. The compounds selected will firstly be put through a thermoregulation assay as a screen for potential cannabinoid receptor activity. Thermoregulation will be used as a screen because of the well-established hypothermic effects seen with the use of cannabinoid ligands. This assay was done using glass radiotelemetry probes that were surgically implanted in each mouse, which monitor core temperature in response to drug administration. […] This screen does indeed confirm the in vivo cannabinoid activity of TV-5-249 and TV-6-41 and it also illustrates the evident antagonist effects against agonist induced hypothermia.

[7] = CHO-hCB2 homogenates (100 μg), read-out: affinity (Ki) at hCB2Rs

Compound: CCCCn1cc(C(=O)c2cccc3ccccc23)c2cccc(O)c21 [Compound M4]
- effect on basal [35S]GTPγS binding levels when tested alone (CB1Rs; 0.1 nM to 10 μM): neither significantly increased (characteristic of agonists), nor decreased
- Kb (CB1Rs; EC90 concentration of CP-55,940 (100 nM), from IC50 by modified Cheng-Prusoff, read-out: Kb, antagonism of CP-55,940-induced [35S]GTPγS binding): 40.3 nM
- antagonism of CB1R agonists and inverse agonists on [35S]GTPγS binding (CB1Rs; M4 10 μM co-incubated with CP-55,940, JWH-018, JWH-073, Rimonabant or AM251): significantly antagonized the action of agonists
- Kb (CB1Rs; M4 1, 3, 10 μM shifting JWH-018 curve, read-out: Kb, Schild analysis against JWH-018): ~40 nM and 48.1 nM and 48 nM
- Schild plot slope (CB1Rs; against JWH-018): 0.97
- antagonism of JWH-018-induced analgesia (NIH Swiss mice [1]): no difference
- Ki (hCB2Rs [2]; CHO-hCB2 homogenates (100 μg), listed as JWH-073-M4, read-out: affinity (Ki) at hCB2Rs): ~250 nM
- Ki (hCB2Rs [2]; [7]): 251 ± 91.1 nM
- Ki (hCB2Rs [2]; Table 3, read-out: hCB2R Ki): 78.3 ± 36.2 nM
- antagonism of JWH-018-induced locomotor suppression (NIH Swiss mice [3]): no difference
- inhibition of adenylyl cyclase activity, reversed by O-2050 (1 μM) ([4]; M4 1 μM): inhibited activity of the downstream intracellular effector adenylyl cyclase
- IC50 ([4]; Neuro2A cells): 225 nM
- inhibition of AC-activity via CB1Rs, concentration-effect ([4]; Neuro2A cells): 50-60%
- antagonism of generalization of JWH-018 to THC (THC-appropriate responding) [5]: No change in THC-appropriate responding
- inhibition of cAMP production relative to vehicle, concentration effect curve (hCB2Rs [6]; 10 μM forskolin, n=1): 81%
- inhibition of intracellular cAMP production, single concentration (hCB2Rs [6]; 10 μM, 30 μM forskolin): 48%
- potency (IC50) of inhibition of intracellular cAMP production (hCB2Rs [6]; CHO-hCB2R cells): nanomolar potency

Compound: CCCCn1cc(C(=O)c2cccc3ccccc23)c2ccccc21 [JWH-073, (1-butyl-1H-indole-3-yl)-1-naphthalenyl-methanone]
- [35S]GTPγS Binding, 1 μM (CB1Rs; 1 μM): 0.27 ± 0.04 pmol/mg
- [35S]GTPγS Binding, +O-2050 (1 μM) (CB1Rs; 1 μM cannabinoid (100 nM for CP-55,940) co-incubated with CB1R antagonist O-2050 1 μM): 0.07 ± 0.02 pmol/mg
- [35S]GTPγS Binding Emax (CB1Rs; concentration-effect, mouse brain homogenates): 0.27 ± 0.01^a pmole/mg
- EC50 (CB1Rs; concentration-effect, mouse brain homogenates, read-out: [35S]GTPγS Binding EC50): 276 ± 65.3 nM
- [35S]GTPγS Binding, 10 μM (CB1Rs; receptor-saturating concentration 10 μM): 0.28±0.03 pmole/mg and 0.28 ± 0.03^c pmole/mg
- Ki (hCB2Rs [2]; [7]): 9.84 ± 0.92 nM
- Ki (hCB2Rs [2]; Table 3, read-out: hCB2R Ki): 9.8 ± 0.9 nM
- hypothermic effect (mice): profound hypothermic effect
